The target of assay [1] is T1, human GLP-1 receptor (Homo sapiens, UniProt P43220).
T1 construct: expressed in transfected cells; membrane preparation
Nature of the assay: GLP-1 receptor SPA binding assay. As to conditions: 0% HSA; BHK cell membranes; displacement of [125I]-GLP-1(7-36)-NH2; read-out: Human GLP1 R SPA binding 0% HSA IC50. From the text:
(§1) In one embodiment affinity refers to in vitro binding affinity, i.e. performance in a GLP-1 receptor binding affinity assay and in a glucagon receptor binding affinity assay, more particularly to the capability of binding the human GLP-1 receptor and to the human glucagon receptor. The binding affinity of the human GLP-1 receptor may be measured in a binding assay, e.g. in a stably transfected BHK cell line that expresses the human GLP-1 receptor. Radioactively labelled GLP-1 binds to the receptor and may be displaced competitvely by a compound. Binding of radioligand may be determined in the presence of scintillation proximity assay (SPA) beads which bind to cell membranes and when radioactivity is close to the bead it produces light which is measured and is a measure of the in vitro binding affinity. […] The binding affinity of the human glucagon receptor may be measured in a binding affinity assay, e.g. in a stably transfected BHK cell line that expresses the human glucagon receptor. […] Binding of radioligand may be determined in the presence of scintillation proximity assay (SPA) beads which bind to cell membranes and when radioactivity is close to the bead it produces light which is measured and is a measure of the in vitro binding affinity. […] The protein concentration was subsequently determined, and the membranes were stored at −80° C. until use. […]
(In general: Loss of bound radioactivity is the signal in a displacement assay; it reports binding, not function.)

The target in assay [2] is T2, human glucagon receptor (Homo sapiens, UniProt P47871).
T2 construct: expressed in transfected cells; membrane preparation
T2 sequence (P47871 26-477): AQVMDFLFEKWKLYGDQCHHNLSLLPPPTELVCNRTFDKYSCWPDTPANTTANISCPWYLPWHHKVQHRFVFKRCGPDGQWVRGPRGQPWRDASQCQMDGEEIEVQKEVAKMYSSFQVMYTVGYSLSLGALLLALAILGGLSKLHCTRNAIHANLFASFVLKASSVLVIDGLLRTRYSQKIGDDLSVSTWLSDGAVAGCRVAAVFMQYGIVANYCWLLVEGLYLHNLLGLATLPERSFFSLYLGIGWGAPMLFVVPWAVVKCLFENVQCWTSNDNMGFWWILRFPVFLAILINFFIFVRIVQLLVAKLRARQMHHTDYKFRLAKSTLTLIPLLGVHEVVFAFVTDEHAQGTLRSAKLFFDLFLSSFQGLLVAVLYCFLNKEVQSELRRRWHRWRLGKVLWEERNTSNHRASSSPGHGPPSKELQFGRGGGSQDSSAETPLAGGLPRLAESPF
Put plainly: Glucagon receptor SPA binding assay. As to conditions: 0% HSA; BHK cell membranes; displacement of [125I]-glucagon; read-out: Human GCG R SPA binding 0% HSA IC50.
Text: as §1

A short description of assay [3]: Plasma alanine transferase levels in diet-induced NASH mice. The class given is in vivo, male C57BL/6 mice. As to conditions: after 56 days of treatment, SC once daily; FIG. 3. Here is the method: (§2) At 5 weeks of age, male C57BL/6 mice were purchased from JanVier, France. During the acclimatization and diet-induction period, the mice were group housed ten per cage in custom-made cabinets under a 12:12 light dark cycle (lights on from 3 AM-3 PM) at controlled temperature conditions (22±1° C.; 50±10% relative humidity). Throughout the diet-induction the mice had ad libitum access to AMLN diet (D09100301, Research Diet, USA) (40% fat (18% trans-fat), 40% carbohydrates (20% fructose) and 2% cholesterol) or regular rodent chow (chow vehicle group) (Altromin 1324, Brogaarden, Denmark) and tap water. Throughout the study period the mice had ad libitum access to AMLN diet, except the weight-matched group which was food restricted to lower the body weight to the same level as for animals receiving compound A or compound B, or regular rodent chow (chow vehicle group) and tap water. […]
(§3) During the diet-induction period, body weight was intermittently monitored. […]
Animal experiments were conducted as described in the section “General Methods of Animal Experiments”. […] All parameters are measured in single determinations using autoanalyzer Cobas C-111 with commercial kit (Roche Diagnostics, Germany) according to the manufacturer's instructions. Data are expressed as mean±SEM (NASH groups n=11-12, Chow Vehicle group n=10). […]

The nature of assay [4]: Hepatic terminal triglycerides and cholesterol content in diet-induced NASH mice. Type of assay: in vivo, male C57BL/6 mice. The following applies: after 56 days of treatment; FIG. 5A. Here is the method:
as §2, §3
Animal experiments were conducted as described in the section “General Methods of Animal Experiments”. Triglycerides and total cholesterol content in liver homogenates were measured in single determinations using autoanalyzer Cobas C-111 with commercial kit (Roche Diagnostics, Germany) according to manufacturer's instructions. […]

Numbered stars: 1 amine (or outer) side, 2 acyl side, 3 side chain; on linkers, the order of the positions; unused ones are H or OH. Square brackets hold non-standard residues; d marks the D form. Side chains are listed from the residue outwards. Peptide text beside a SMILES is read from it. * marks the point of attachment. C18 diacid = O=C(O)CCCCCCCCCCCCCCCCC(=O)*; γGlu = O=C(O)[C@H](CCC(=O)[*:2])N[*:1]; Ac4c = NC1(C(=O)O)CCC1; AEEA = NCCOCCOCC(=O)O; Aib = CC(C)(N)C(=O)O

T1 sequence (P43220 24-463): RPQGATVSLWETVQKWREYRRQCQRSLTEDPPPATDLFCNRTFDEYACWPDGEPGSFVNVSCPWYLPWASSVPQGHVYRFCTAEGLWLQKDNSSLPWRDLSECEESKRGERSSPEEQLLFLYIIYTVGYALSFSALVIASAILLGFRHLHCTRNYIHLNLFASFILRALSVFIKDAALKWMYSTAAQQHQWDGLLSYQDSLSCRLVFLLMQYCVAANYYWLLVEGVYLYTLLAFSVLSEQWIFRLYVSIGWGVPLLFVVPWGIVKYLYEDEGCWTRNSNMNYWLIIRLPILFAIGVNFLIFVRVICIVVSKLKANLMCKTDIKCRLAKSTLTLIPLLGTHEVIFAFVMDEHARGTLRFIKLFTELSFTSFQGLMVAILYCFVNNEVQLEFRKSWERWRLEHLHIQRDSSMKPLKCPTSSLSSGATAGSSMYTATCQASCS

One may read the IC50 as the concentration at which inhibition is half-maximal. With `CC(C)C[C@H](NC(=O)[C@H](Cc1ccc(O)cc1)NC(=O)[C@H](CCCCN)NC(=O)[C@H](CO)NC(=O)[C@H](CC(C)C)NC(=O)[C@H](CC(=O)O)NC(=O)[C@H](CO)NC(=O)[C@@H](NC(=O)[C@H](Cc1ccccc1)NC(=O)[C@@H](NC(=O)CNC(=O)[C@H](CCC(N)=O)NC(=O)C(C)(C)NC(=O)[C@@H](N)Cc1c[nH]cn1)[C@@H](C)O)[C@@H](C)O)C(=O)N[C@@H](CCC(=O)O)C(=O)N[C@@H](CO)C(=O)N[C@@H](CCCCN)C(=O)N[C@@H](CCCNC(=N)N)C(=O)N[C@@H](C)C(=O)N[C@@H](CCCNC(=N)N)C(=O)N[C@@H](CCC(=O)O)C(=O)N[C@@H](Cc1ccccc1)C(=O)N[C@H](C(=O)N[C@@H](CCC(N)=O)C(=O)N[C@@H](Cc1c[nH]c2ccccc12)C(=O)N[C@@H](CC(C)C)C(=O)N[C@@H](CC(C)C)C(=O)N[C@@H](CCCCNC(=O)CC[C@H](NC(=O)CC[C@H](NC(=O)[C@H](CO)NC(=O)[C@H](CCC(=O)O)NC(=O)[C@H](CO)NC(=O)CC[C@H](NC(=O)CC[C@H](NC(=O)CCCCCCCCCCCCCCCCC(=O)O)C(=O)O)C(=O)O)C(=O)O)C(=O)O)C(=O)N[C@H](C(N)=O)[C@@H](C)O)C(C)C` [Compound A, N^ε28-[(4S)-4-carboxy-4-[[(4S)-4-carboxy-4-[[(2S)-2-[[(2S)-4-carboxy-2-[[(2S)-2-[[(4S)-4-carboxy-4-[[(4S)-4-carboxy-4-(17-carboxyheptadecanoylamino)butanoyl]amino]butanoyl]amino]-3-hydroxypropanoyl]amino]butanoyl]amino]-3-hydroxypropanoyl]amino]butanoyl]amino]butanoyl]-[Aib2,Leu10,Glu15,Lys17,Arg20,Glu21,Leu27,Lys28]-Glucagon amide] (H-H[Aib]QGTFTSDLSKYLESKRAREFVQWLLK([γGlu-γGlu-Ser-Glu-Ser-γGlu-γGlu-C18 diacid])T-NH2), the IC50 in assay [1] was 0.3 nM; in assay [2] it was 1.4 nM. Also, in assay [3], the “effect on plasma ALT levels compared with the weight-matched (WM) group” value was “the observed effect is bigger”. In addition, the “effect on liver triglyceride levels compared with the weight-matched (WM) group” value in assay [4] is “the observed effect is bigger”.

As to `CC(C)C[C@H](NC(=O)[C@H](CC(=O)O)NC(=O)[C@H](CC(C)C)NC(=O)[C@H](Cc1ccc(O)cc1)NC(=O)[C@H](CCCCN)NC(=O)[C@H](CO)NC(=O)[C@H](CC(C)C)NC(=O)[C@H](CC(=O)O)NC(=O)[C@H](CO)NC(=O)[C@@H](NC(=O)[C@H](Cc1ccccc1)NC(=O)[C@@H](NC(=O)CNC(=O)[C@H](CCC(N)=O)NC(=O)C1(NC(=O)[C@@H](N)Cc2c[nH]cn2)CCC1)[C@@H](C)O)[C@@H](C)O)C(=O)N[C@@H](CCCNC(=N)N)C(=O)N[C@@H](CCCNC(=N)N)C(=O)N[C@@H](C)C(=O)N[C@@H](CCCNC(=N)N)C(=O)N[C@@H](CC(=O)O)C(=O)N[C@@H](Cc1ccccc1)C(=O)N[C@H](C(=O)N[C@@H](CCC(N)=O)C(=O)N[C@@H](Cc1c[nH]c2ccccc12)C(=O)N[C@@H](CC(C)C)C(=O)N[C@@H](CC(C)C)C(=O)N[C@@H](CCCCNC(=O)CC[C@H](NC(=O)CC[C@H](NC(=O)COCCOCCNC(=O)COCCOCCNC(=O)CC[C@H](NC(=O)CC[C@H](NC(=O)CCCCCCCCCCCCCCCCC(=O)O)C(=O)O)C(=O)O)C(=O)O)C(=O)O)C(=O)N[C@H](C(N)=O)[C@@H](C)O)C(C)C` [Compound B, N^ε28-[(4S)-4-carboxy-4-[[(4S)-4-carboxy-4-[[2-[2-[2-[[2-[2-[2-[[(4S)-4-carboxy-4-[[(4S)-4-carboxy-4-(17-carboxyheptadecanoylamino)butanoyl]amino]butanoyl]amino]ethoxy]ethoxy]acetyl]amino]ethoxy]ethoxy]acetyl]amino]butanoyl]amino]butanoyl]-[Acb2,Leu10,Leu16,Arg20,Leu27,Lys28]-Glucagon amide] (H-H[Ac4c]QGTFTSDLSKYLDLRRARDFVQWLLK([γGlu-γGlu-AEEA-AEEA-γGlu-γGlu-C18 diacid])T-NH2), the concentration for half-maximal inhibition (IC50) in assay [1] is 1.6 nM; in assay [2], 0.8 nM. The “effect on plasma ALT levels compared with the weight-matched (WM) group” value in assay [3] is given as “the observed effect is bigger”. Further, the “effect on liver triglyceride levels compared with the weight-matched (WM) group” value in assay [4] is “the observed effect is bigger”.

The values above are taken from patent US20200268835A1, “Compounds For Use in NASH” (Novo Nordisk A/S, priority 2019, published 2020).
